The source of these data is patent publication US20160083397A1, “PARTHENOLIDE DERIVATIVES AND THEIR MODULATION OF PROCESSES CONTROLLED BY REGULATED TRANSLATION” (THE BOARD OF TRUSTEES OF THE UNIVERSITY OF ARKANSAS, priority 2013, published 2016).

Several values for one entry are separate records, joined by “and”; a condition that tells them apart may be missing. Equal values may be shown once. Where only a bound is given, the exact number is not on record here.

One data set relates to SR. As to conditions: for GI50: SR, Leukemia.
Another data set relates to HT29. As to conditions: for GI50: HT29, Colon Cancer.
The next data set concerns CAKI-1. As to conditions: for GI50: CAKI-1, Renal Cancer.
For a further data set, the system named is SK-MEL-2. Kind of data set: NCI 60-cell line five dose screen: SK-MEL-2. As to conditions: SK-MEL-2, Melanoma.
A further data set has as its system Xenopus oocytes. In words: Xenopus oocyte maturation assay. The format is cell-based. As to conditions: for Xenopus Oocyte Maturation Assay, Without Progesterone: no progesterone, activator = able to induce GVBD in the absence of added progesterone; for Xenopus Oocyte Maturation Assay, With Progesterone: test compound 100 μM, progesterone 2 μg/mL, inhibitor = slowed rate of progesterone-dependent GVBD by 20% or more. From the text:
An in vivo Xenopus oocyte maturation assay was used to screen the compounds for their ability to modulate the activity of cell cycle control proteins, mRNA translational control proteins, and/or proteins involved in signaling pathways. In this assay, oocyte maturation (or cell cycle progression) is monitored phenotypically using an image capture system. Oocyte maturation is correlated with the appearance of a white spot at the animal pole of the darkly pigmented animal hemisphere of the oocyte. The white spot appears because the germinal vesicle (i.e., the large nucleus of the oocyte) migrates to the animal pole prior to meiotic germinal vesicle breakdown (GVBD).
Immature stage VI Xenopus oocytes were transferred to wells of a flat bottom 96-well plate containing about 178 μL of L15 culture media. The oocytes were transferred using wide mouth 200 μL pipette tips with minimal transfer of culture medium (e.g., about 20 μL). Generally, the oocytes oriented with the pigmented animal hemisphere facing up due to the higher density of the yolk-containing vegetal hemisphere. Incorrectly orientated oocytes were gently manipulated using a drawn-out capillary tube to rotate them into the correct orientation.
Forty-four test compounds were dissolved in DMSO to make 100× stock solutions. The test compounds were added to the appropriate wells at a final concentration of 100 μM (and 1% DMSO). Control oocytes were exposed to 1% DMSO only (generally the first and last wells of a plate contained the untreated, control oocytes). Sixteen hours later, progesterone was added to each well to stimulate progesterone-dependent oocyte maturation. For this, 2 μL of 1000× stock solution (2 mg/mL in ethanol) was added to the appropriate wells to yield a final concentration of 2 μg/mL. The rate of maturation in the control oocytes (i.e., those in the first and last wells) served as an intra-assay control for time taken for progesterone addition across the multi-well plate.
The 96-well plate was imaged from above (i.e., top-down) using a 36-megapixel Nikon D800 SLR camera with an AF Micro Nikkor 60 mm, f/2.8 lens, mounted on a dedicated copy stand (with adjustable flanking light sources). The plate was imaged prior to and after addition of progesterone (i.e., images were taken at regular intervals over a period of 7 hours). The high resolution images were digitally zoomed after capture to analyze the maturation status of oocytes in individual wells of the plate. Test compounds that slowed the rate of progesterone-dependent GVBD by 20% or more were classified as inhibitors (assessed relative to the time 50% of the population of control, vehicle treated oocytes had undergone GVBD (GVBD50)).
To determine whether the test compounds were able to activate oocyte maturation in a progesterone-independent manner, oocytes were incubated in the presence of the test compound (dissolved in DMSO) or DMSO only. The oocytes were imaged at regular intervals for the evidence of GVBD, or subsets of oocytes were removed at predetermined times and the activation status of key cell cycle control proteins (e.g., pMAP kinase, pCcd2, etc.) was analyzed by Western blotting. For example, activation of pMAP kinase is associated with increased phosphorylation whereas activation of pCdc2 is associated with decreased phosphorylation. Compounds were classified as an activator if they were able to induce GVBD in the absence of added progesterone. Further, compounds were classified as accelerators if they accelerated the rate of progesterone-stimulated GVBD, but were unable to induce GVBD in the absence of progesterone. The criteria for test compounds to be considered accelerators is that they must increase the rate of progesterone-dependent GVBD by 20% or more at one dose (assessed relative to the time 50% of the population of control, vehicle treated oocytes had undergone GVBD (GVBD50)).

A further data set has as its system NCI-H522. As to conditions: for GI50: NCI-H522, Lung Cancer.
In the next data set the test system is TK-10. Kind of data set: NCI 60-cell line five dose screen: TK-10. As to conditions: TK-10, Renal Cancer.
The next data set has as its system RXF 393. Kind of data set: NCI 60-cell line five dose screen: RXF 393. As to conditions: RXF 393, Renal Cancer.
The test system of the next data set is HCC-2998. In words: NCI 60-cell line five dose screen: HCC-2998. As to conditions: HCC-2998, Colon Cancer.

As for “13-(2-iodoimidazole)parthenolide [PNR-5-65]”, the CC50 in the data set on SR was > 100 µM; with HT29 it was 61.5 µM; in the data set on CAKI-1, 49.5 µM; in the data set with SK-MEL-2 (read-out: LC50), 66.1 µM; in the data set on NCI-H522, 6.34 µM. For the same substance, the 50% growth inhibitory concentration (GI50) with SR was 13.6 µM; in the data set on HT29, 17.6 µM; in the data set with CAKI-1 it was 6.61 µM; in the data set on SK-MEL-2, 18.6 µM; with NCI-H522, 1.77 µM and 1.71 µM. For the same substance, the “Xenopus Oocyte Maturation Assay, Without Progesterone” value in the data set with Xenopus oocytes is “Not an activator or inhibitor”. For the same substance, the “Xenopus Oocyte Maturation Assay, With Progesterone” value in the data set with Xenopus oocytes is “Not an activator or inhibitor”.

As for “(E)-13-(3-thiopheno)parthenolide [PNR-5-53]”, the CC50 was > 100 µM with SR; > 100 µM in the data set on TK-10 (read-out: LC50); > 100 µM with HT29; > 100 µM in the data set on RXF 393 (read-out: LC50); > 100 µM in the data set with CAKI-1; 76.6 µM in the data set with UACC-62. In addition, the CC50 was > 100 µM in the data set with ACHN, 59.7 µM in the data set with NCI-H522 and > 100 µM in the data set with HCC-2998 (read-out: LC50). The concentration for 50% growth inhibition (GI50) is 20.7 µM in the data set on SR; 34.7 µM with TK-10; 27 µM in the data set on HT29; 18.1 µM with RXF 393; 30.9 µM in the data set on CAKI-1; 13.8 µM in the data set with UACC-62 (UACC-62, Melanoma). Besides, the GI50 came to 5.44 µM in the data set on NCI-H522 and 33.8 µM in the data set on HCC-2998. The “Xenopus Oocyte Maturation Assay, Without Progesterone” value in the data set on Xenopus oocytes is recorded as “Not an activator or inhibitor”. Further, in the data set on Xenopus oocytes, the “Xenopus Oocyte Maturation Assay, With Progesterone” value is reported as “Not an activator or inhibitor”.

A word on the GI50: it is the concentration giving 50% growth inhibition. High values mean less potent growth inhibition, low ones more potent growth inhibition.
